This passage reports EC50 results from BindingDB's records for doi:10.7270/Q2V40SNS (Nmmlsc, 2009).

As usually defined, the EC50 is the concentration needed to bring the measured effect to its halfway point. The low end stands for greater potency, the high end for weaker potency.

This test addresses Ras-related protein Rab-2A (Canis lupus familiaris, UniProt P61105). Kind of test: Rab2 wildtype GTP-binding inhibitors, SAR follow-up, biochemical, additional analogs, bead-based flow cytometry, multiplex (AID 2046). (In general: Flow cytometry measures light scatter and fluorescence of single cells or particles in a stream.)
Where [1] appears, read: inactive by the depositor's call.

Sequence of Ras-related protein Rab-2A (P61105 whole entry): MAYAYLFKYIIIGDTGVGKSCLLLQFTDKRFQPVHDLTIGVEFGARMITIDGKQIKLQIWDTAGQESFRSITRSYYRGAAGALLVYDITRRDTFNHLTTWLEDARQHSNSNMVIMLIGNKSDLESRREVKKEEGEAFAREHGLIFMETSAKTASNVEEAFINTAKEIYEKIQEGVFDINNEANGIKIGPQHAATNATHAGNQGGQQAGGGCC

In turn, `O=C1Nc2c(Cl)cccc2C1=C1Nc2ccccc2C1=O` gave an EC50 of 30 µM. The compound `O=C1Nc2c(Br)cccc2C1=C1Nc2ccccc2C1=O` displayed an EC50 of 30 µM.

On to `O=C1Nc2c(F)cccc2C1=C1Nc2ccccc2C1=O`, for which the response was half-maximal at 30 µM (EC50). That is a double-digit micromolar value. On the same count and under the same terms, to `O=C1NC(=O)/C(=C2/C(=O)Nc3ccccc32)N1` belongs 30 µM. Under setting [1], `O=C1Nc2cccc(Br)c2/C1=C1/Cc2ccccc2C1=O` had an EC50 of 30 µM. `O=C1Nc2ccc(Br)cc2C1=C1Nc2ccccc2C1=O` registered an EC50 of 30 µM. This counts as double-digit micromolar. In turn, `COc1ccc(S(=O)(=O)n2c(N)c(C#N)c(-c3ccccc3)c2C(=O)c2ccc(Br)cc2)cc1` returned an EC50 under setting [1] of 30 µM.

For `O=[N+]([O-])c1ccc(C#Cc2ccccc2)cc1`, a half-maximal response under setting [1] (EC50) required 30 µM. On the same count and under the same terms, to `O=C(C#Cc1ccccc1)c1ccc(OC(F)(F)F)cc1` belongs 30 µM; to `COc1ccc(C(=O)C#Cc2ccccc2)cc1` [1-(4-methoxyphenyl)-3-phenyl-2-propyn-1-one], 30 µM. Same read-out and setting: to `O=C(C#Cc1ccccc1)c1ccc([N+](=O)[O-])cc1` [1-(4-nitrophenyl)-3-phenyl-2-propyn-1-one] belongs 30 µM; to `CC(C(=O)O)c1cccc(C(=O)c2ccccc2)c1` (configuration not stated) [2-(3-benzoylphenyl)propanoic acid], 30 µM. Same read-out and setting: to `COc1ccc2cc(CC(=O)O)ccc2c1` [2-(6-methoxynaphthalen-2-yl)ethanoic acid] belongs 30 µM; to `CC(=O)Oc1ccccc1C(=O)O` [2-(acetyloxy)benzoic acid], 30 µM. For the compound `O=C1Nc2ccccc2/C1=C1/Nc2ccccc2C1=O` [2-[(3Z)-2-oxo-2,3-dihydro-1H-indol-3-ylidene]-2,3-dihydro-1H-indol-3-one], a half-maximal effect (EC50) was put at 30 µM. That is a double-digit micromolar value. Compound `CCCCS(=O)(=O)n1c(N)c(C#N)c(-c2cc(OC)c(OC)c(OC)c2)c1C(=O)c1ccccc1` [2-amino-5-benzoyl-1-butylsulfonyl-4-(3,4,5-trimethoxyphenyl)-3-pyrrolecarbonitrile] returned an EC50 under setting [1] of 30 µM. This lies in the double-digit micromolar range. Still for that read-out and setting: to `COc1ccc(S(=O)(=O)n2c(N)c(C#N)c(-c3cncc(Br)c3)c2C(=O)c2ccccc2)cc1` [2-amino-5-benzoyl-4-(5-bromo-3-pyridinyl)-1-(4-methoxyphenyl)sulfonyl-3-pyrrolecarbonitrile] belongs 30 µM; to `COc1ccc(-c2c(C#N)c(N)n(S(C)(=O)=O)c2C(=O)c2ccccc2)cc1Br` [2-azanyl-4-(3-bromanyl-4-methoxy-phenyl)-1-methylsulfonyl-5-(phenylcarbonyl)pyrrole-3-carbonitrile], 30 µM. The same measure, in the same setting: to `COc1cc(-c2c(C#N)c(N)n(S(=O)(=O)c3c(C(C)C)cc(C(C)C)cc3C(C)C)c2C(=O)c2ccccc2)cc(OC)c1OC` [2-azanyl-5-(phenylcarbonyl)-4-(3,4,5-trimethoxyphenyl)-1-[2,4,6-tri(propan-2-yl)phenyl]sulfonyl-pyrrole-3-carbonitrile] belongs 30 µM. `O=C1N=c2ccccc2=C1c1[nH]c2ccccc2c1NO` [3-[3-(hydroxyamino)-1H-indol-2-yl]-2-indolone] gave an EC50 of 30 µM. Compound `O=C(C#Cc1ccccc1)c1cccnc1` [3-phenyl-1-pyridin-3-ylprop-2-yn-1-one] came in with an EC50 under setting [1] of 30 µM. Same read-out and setting: the same measure for `COC(=O)c1ccc(C(=O)C#Cc2ccccc2)cc1` [4-(1-oxo-3-phenylprop-2-ynyl)benzoic acid methyl ester]: 30 µM; for `N#Cc1ccc(C(=O)C#Cc2ccccc2)cc1` [4-(3-phenylprop-2-ynoyl)benzenecarbonitrile]: 30 µM. Compound `O=C1N=c2ccc(Br)cc2=C1c1[nH]c2ccccc2c1NO` [5-bromanyl-3-[3-(oxidanylamino)-1H-indol-2-yl]indol-2-one] came in with an EC50 of 65.2 µM. As for `O=C1N=c2c(Br)cccc2=C1c1[nH]c2ccccc2c1NO` [7-bromanyl-3-[3-(oxidanylamino)-1H-indol-2-yl]indol-2-one], the EC50 came to 65.8 µM. On the same count and under the same terms, to `O=C1N=c2c(Cl)cccc2=C1c1[nH]c2ccccc2c1NO` [7-chloro-3-[3-(hydroxyamino)-1H-indol-2-yl]-2-indolone] belongs 30 µM; to `O=C1N=c2c(F)cccc2=C1c1[nH]c2ccccc2c1NO` [7-fluoro-3-[3-(hydroxyamino)-1H-indol-2-yl]-2-indolone], 30 µM. As for `O=C1Nc2c(Br)cccc2/C1=C1/Cc2ccccc2C1=O` [(3E)-7-bromo-3-(3-oxo-1H-inden-2-ylidene)-1H-indol-2-one], the EC50 under setting [1] amounted to 30 µM. Turning to `O=C1NC(=S)N/C1=C1\C(=O)Nc2ccccc21` [(3Z)-3-(5-oxo-2-sulfanylideneimidazolidin-4-ylidene)-1H-indol-2-one], the EC50 was determined as 30 µM. The compound `CC(C)Cc1ccc([C@H](C)C(=O)O)cc1` [(S)-2-(4-Isobutyl-phenyl)-propionic acid] displayed an EC50 under setting [1] of 30 µM. This lies in the double-digit micromolar range.

In turn, `O=C1Nc2ccccc2/C1=C1/Cc2ccccc2C1=O` [UNM-0000305763] had a half-maximal effective concentration (EC50) under setting [1] of 30 µM. `N#Cc1c(-c2ccc(Cl)cc2)c(C(=O)c2ccccc2)n(S(=O)(=O)c2ccc([N+](=O)[O-])cc2)c1N` [UNM-0000305780]: under setting [1], the EC50 was 30 µM.

`COc1ccc(S(=O)(=O)n2c(N)c(C#N)c(-c3cc(Br)c(OC)c(OC)c3)c2C(=O)c2ccccc2)cc1` [UNM-0000305782] gave an EC50 under setting [1] of 30 µM. Same read-out and setting: to `O=C(C#Cc1ccccc1)c1ccccc1[N+](=O)[O-]` [UNM-0000306038] belongs 30 µM; to `O=C(C#Cc1ccccc1)c1ccccc1` [UNM-0000306039], 30 µM. `O=C(C#Cc1ccccc1)c1ccc(Cl)cc1` [UNM-0000306055] yielded an EC50 under setting [1] of 30 µM. This lies in the double-digit micromolar range. Under setting [1], `O=C(C#Cc1ccccc1)c1ccc(F)cc1` [UNM-0000306059] had an EC50 of 30 µM. This lies in the double-digit micromolar range. In turn, `COc1ccc2cc([C@H](C)C(=O)O)ccc2c1` [UNM-0000306098] gave an EC50 of 30 µM. Take `CC1=C(CC(=O)O)c2cc(F)ccc2/C1=C/c1ccc([S+](C)[O-])cc1` (configuration not stated) [UNM-0000306136]: the EC50 under setting [1] worked out at 30 µM.

In turn, `C[C@@H](C(=O)O)c1cccc(Oc2ccccc2)c1` [calcium;2-(3-phenoxyphenyl)propanoic acid;hydrate] registered an EC50 of 30 µM. Take `COc1ccc2cc([C@@H](C)C(=O)O)ccc2c1` [sodium;(2R)-2-(6-methoxy-2-naphthalenyl)propanoate]: a half-maximal response (EC50) required 1.74 µM. With `CSc1ccc(/C=C2/C(C)=C(CC(=O)O)c3cc(F)ccc32)cc1` [{6-Fluoro-2-methyl-3-[1-(4-methylsulfanyl-phenyl)-meth-(E)-ylidene]-3H-inden-1-yl}-acetic acid], the response under setting [1] was half-maximal at 30 µM (EC50).
